Patent publication US20090018111A1, “Novel Antimicrobial Medicament” (priority 2004, published 2009)
Where two headings read alike, the source gives them in different places.

Legend:
E. cloacae GN7471 = assay: Sensitivity test (agar dilution); assay type: cell-based, Enterobacter cloacae; conditions: Enterobacter cloacae, E. cloacae GN7471
Description: (§1) The antibacterial activities were tested against various 18 bacteria (27 standard strains) which are representative bacteria caused clinically infectious disease (Staphylococcus aureus 3 strains, Staphylococcus epidermidis 1 strain, Micrococcus luteus 1 strain, Streptococcus pyogenes 1 strain, Enterococcus faecalis 1 strain, Enterococcus faecium 1 strain, Bacillus subtilis 1 strain, Escherichia coli 3 strains, Klebsiella pneumoniae 1 strain, Proteus mirabilis 1 strain, Proteus vulgaris 2 strains, Pseudomonas aeruginosa 3 strains, Serratia marcescens 2 strains, Enterobacter aerogenes 1 strain, Stenotrophomonas maltophilia 1 strain, Enterobacter cloacae 1 strain, Citrobacter freundii 1 strain, Moraxella catarrhalis 2 strains).
(§2) According to the standard method of Japan Chemotherapeutic Society (Chemotherapy, vol. […], p 76-79 (1981)) the test was carried out using the agar dilution method. After dissolving test samples in distilled water, agar medium containing the test samples was prepared in such a manner that the final concentration became twice serial dilution by pouring serially diluted combination drug solution or a single drug solution into agar medium. As agar medium was used Mueller Hinton Agar medium (MHA). Then, each strain was cultivated over night at 37° C. in an incubator and suspended in buffered saline solution with gelatin (BSG) in the concentration of about 10^6 CFU/ml. The suspension (about 5 μl) containing test strains was inoculated to the medium containing the test samples by Micro Planter.
(§3) When the sample is subjected to sensitivity test, this mixed solution was diluted by twice serial dilution method.
(§4) Furthermore, when the drug is solely used, each test sample was used as it is, and diluted by twice serial dilution method from the maximum concentration to the minimum concentration.
(§5) FIC index based on MIC value was calculated. […] Namely, when FIC index calculated by the following formula is equal or less than 1, the enhanced effect of the combination drug in said ratio is considered as positive. When FIC index is over 1, the enhanced effect of the combination drug in said ratio is considered as negative.
(§6) Formula of FIC index: FIC index=(MIC of Drug A in combination/MIC of Drug A alone)+(MIC of Drug B in combination/MIC of Drug B alone) N.C. in tables means being not calculated.

S. epidermidis IAM1296 = assay: Sensitivity test (agar dilution); assay type: cell-based, Staphylococcus epidermidis; conditions: Staphylococcus epidermidis, S. epidermidis IAM1296
Description: as §1, §2, §3, §4, §5, §6

E. faecium ATCC19434 = assay: Sensitivity test (agar dilution); assay type: cell-based, Enterococcus faecium; conditions: Enterococcus faecium, E. faecium ATCC19434
Description: as §1, §2, §3, §4, §5, §6

P. vulgaris GN7919 = assay: Sensitivity test (agar dilution); assay type: cell-based, Proteus vulgaris; conditions: Proteus vulgaris, P. vulgaris GN7919
Description: as §1, §2, §3, §4, §5, §6

P. vurgalis OX-19 = assay: Sensitivity test (agar dilution); assay type: cell-based, Proteus vulgaris; conditions: Proteus vulgaris, P. vurgalis OX-19
Description: as §1, §2, §3, §4, §5, §6

E. coli ML1410 RP4 = assay: microbe, parasite or virus in culture; assay type: cell-based, Escherichia coli; conditions: Escherichia coli, E. coli ML1410 RP4
Description: as §1, §2, §3, §4, §5, §6

Str. pyogenes Cook = assay: Sensitivity test (agar dilution); assay type: cell-based, Streptococcus pyogenes; conditions: Streptococcus pyogenes, Str. pyogenes Cook
Description: as §1, §2, §3, §4, §5, §6

B. subtilis ATCC6633 = assay: Sensitivity test (agar dilution); assay type: cell-based, Bacillus subtilis; conditions: Bacillus subtilis, B. subtilis ATCC6633
Description: as §1, §2, §3, §4, §5, §6

E. faecalis ATCC19433 = assay: Sensitivity test (agar dilution); assay type: cell-based, Enterococcus faecalis; conditions: Enterococcus faecalis, E. faecalis ATCC19433
Description: as §1, §2, §3, §4, §5, §6

E. coli NIHJ JC-2 = assay: Sensitivity test (agar dilution); assay type: cell-based, Escherichia coli; conditions: Escherichia coli, E. coli NIHJ JC-2
Description: as §1, §2, §3, §4, §5, §6

E. coli ML1410 = assay: Sensitivity test (agar dilution); assay type: cell-based, Escherichia coli; conditions: Escherichia coli, E. coli ML1410
Description: as §1, §2, §3, §4, §5, §6

S. marcescens X 100 = assay: Sensitivity test (agar dilution); assay type: cell-based, Serratia marcescens; conditions: Serratia marcescens, S. marcescens X 100
Description: as §1, §2, §3, §4, §5, §6

S. marcescens GN6473 = assay: Sensitivity test (agar dilution); assay type: cell-based, Serratia marcescens; conditions: Serratia marcescens, S. marcescens GN6473
Description: as §1, §2, §3, §4, §5, §6

Question: Which results are given for `C[C@@H](O)[C@H]1C(=O)N2C(C(=O)O)=C(S[C@@H]3CN[C@H](CNS(N)(=O)=O)C3)[C@H](C)[C@H]12` [DRPM, doripenem]?
Answer: MIC (E. cloacae GN7471; GN7471, Concomitant (DRPM:SM = 1:1), read-out: MIC concomitant): 0.031 µg/mL; MIC (E. cloacae GN7471; GN7471, drug alone, read-out: MIC alone): 0.031 µg/mL; MIC (S. epidermidis IAM1296; IAM1296, Concomitant (DRPM:SM = 1:1), read-out: MIC concomitant): 0.031 µg/mL; MIC (S. epidermidis IAM1296; IAM1296, drug alone, read-out: MIC alone): 0.5 µg/mL; MIC (E. faecium ATCC19434; ATCC19434, Concomitant (DRPM:SM = 1:1), read-out: MIC concomitant): 0.25 µg/mL; MIC (E. faecium ATCC19434; ATCC19434, drug alone, read-out: MIC alone): 8 µg/mL; MIC (P. vulgaris GN7919; GN7919, Concomitant (DRPM:SM = 1:1), read-out: MIC concomitant): 0.063 µg/mL; MIC (P. vulgaris GN7919; GN7919, drug alone, read-out: MIC alone): 0.125 µg/mL; MIC (P. vurgalis OX-19; OX19, Concomitant (DRPM:SM = 1:1), read-out: MIC concomitant): 0.031 µg/mL; MIC (P. vurgalis OX-19; OX19, drug alone, read-out: MIC alone): 0.031 µg/mL; MIC (E. coli ML1410 RP4; ML1410RP4, read-out: MIC alone, drug alone): 0.031 µg/mL; MIC (E. coli ML1410 RP4; ML1410RP4, read-out: MIC concomitant, Concomitant (DRPM:SM = 1:1)): 0.031 µg/mL; MIC (Str. pyogenes Cook; Concomitant (DRPM:SM = 1:1), read-out: MIC concomitant): ≤ 0.002 µg/mL; MIC (Str. pyogenes Cook; drug alone, read-out: MIC alone): ≤ 0.002 µg/mL; MIC (B. subtilis ATCC6633; ATCC6633, Concomitant (DRPM:SM = 1:1), read-out: MIC concomitant): ≤ 0.002 µg/mL; MIC (B. subtilis ATCC6633; ATCC6633, drug alone, read-out: MIC alone): 0.008 µg/mL; MIC (E. faecalis ATCC19433; ATCC19433, Concomitant (DRPM:SM = 1:1), read-out: MIC concomitant): 1 µg/mL; MIC (E. faecalis ATCC19433; ATCC19433, drug alone, read-out: MIC alone): 4 µg/mL; MIC (E. coli NIHJ JC-2; NIHJJC2, Concomitant (DRPM:SM = 1:1), read-out: MIC concomitant): 0.016 µg/mL; MIC (E. coli NIHJ JC-2; NIHJJC2, drug alone, read-out: MIC alone): 0.016 µg/mL; MIC (E. coli ML1410; ML1410, Concomitant (DRPM:SM = 1:1), read-out: MIC concomitant): 0.031 µg/mL; MIC (E. coli ML1410; ML1410, drug alone, read-out: MIC alone): 0.031 µg/mL; MIC (S. marcescens X 100; X100, Concomitant (DRPM:SM = 1:1), read-out: MIC concomitant): 0.031 µg/mL; MIC (S. marcescens X 100; X100, drug alone, read-out: MIC alone): 0.031 µg/mL; MIC (S. marcescens GN6473; GN6473, Concomitant (DRPM:SM = 1:1), read-out: MIC concomitant): 0.063 µg/mL; MIC (S. marcescens GN6473; GN6473, drug alone, read-out: MIC alone): 0.063 µg/mL
